{"source": "paper PMC10523748", "about": "“Cytotoxicity, acute and sub-chronic toxicities of the leaves of Bauhinia thonningii (Schumach.) Milne-Redh. (Caesalpiniaceae)” (BMC Complementary Medicine and Therapies, 2023)", "key": {"[1]": {"test_system": "HCT116 p53^+/+ colon adenocarcinoma cells", "assay": "RRA cytotoxicity, HCT116 p53^+/+", "settings": "Homo sapiens, HCT-116, 72 h"}, "[2]": {"test_system": "MDA-MB-231-pcDNA breast adenocarcinoma cells", "assay": "RRA cytotoxicity, MDA-MB-231-pcDNA", "settings": "Homo sapiens, 72 h"}, "CCRF-CEM leukemia cells": {"test_system": "CCRF-CEM leukemia cells", "assay": "Resazurin reduction assay (RRA) cytotoxicity, CCRF-CEM", "settings": "72 h"}, "U87MG glioblastoma cells": {"test_system": "U87MG glioblastoma cells", "assay": "RRA cytotoxicity, U87MG", "settings": "Homo sapiens, U-87 MG, 72 h"}, "HCT116 p53^−/− cells": {"test_system": "HCT116 p53^−/− cells", "assay": "RRA cytotoxicity, HCT116 p53^−/−", "settings": "Homo sapiens, HCT-116, 72 h"}, "[3]": {"test_system": "CEM/ADR5000 leukemia cells (P-gp-overexpressing)", "assay": "RRA cytotoxicity, CEM/ADR5000"}, "MDA-MB-231-BCRP cells": {"test_system": "MDA-MB-231-BCRP cells", "assay": "RRA cytotoxicity, MDA-MB-231-BCRP"}, "U87MG.ΔEGFR cells": {"test_system": "U87MG.ΔEGFR cells", "assay": "RRA cytotoxicity, U87MG.ΔEGFR", "settings": "Homo sapiens, 72 h"}, "[4]": {"test_system": "HepG2 hepatocarcinoma cells", "assay": "RRA cytotoxicity, HepG2", "settings": "Homo sapiens, HepG2, 72 h"}, "[5]": {"test_system": "9 tested cancer cell lines", "assay": "RRA cytotoxicity, whole panel of cancer cell lines", "settings": "9 cancer cell lines, up to 50 µM"}, "CCRF-CEM cells": {"test_system": "CCRF-CEM cells", "parameters": "method as in PMID 12064912", "settings": "cited from earlier work"}, "CEM/ADR5000 cells": {"test_system": "CEM/ADR5000 cells", "parameters": "method as in PMID 12064912", "settings": "cited from earlier work"}, "normal AML12 hepatocytes": {"test_system": "normal AML12 hepatocytes", "assay": "RRA cytotoxicity, normal AML12 hepatocytes", "settings": "Mus musculus, AML12, 72 h"}}, "data": [{"smiles": "O=c1c(O)c(-c2ccc(O)c(O)c2)oc2cc(O)cc(O)c12", "note": "[Compound 4, quercetin]", "values": [{"measurement": "IC50", "setting": "[1]", "value": "> 50", "unit": "µM"}, {"measurement": "IC50", "setting": "[2]", "value": "42.3 ± 3.29", "unit": "µM"}, {"measurement": "IC50", "setting": "CCRF-CEM leukemia cells", "value": "27.3 ± 3.12", "unit": "µM"}, {"measurement": "IC50", "setting": "CCRF-CEM leukemia cells; Homo sapiens", "value": 27, "unit": "µM"}, {"measurement": "IC50", "setting": "U87MG glioblastoma cells", "value": "> 50", "unit": "µM"}, {"measurement": "IC50", "setting": "HCT116 p53^−/− cells", "value": "> 50", "unit": "µM"}, {"measurement": "IC50", "setting": "[3]; Homo sapiens, ADR5000, 72 h", "value": "> 50", "unit": "µM"}, {"measurement": "Degree of resistance", "setting": "[3]; IC50 CEM/ADR5000 versus CCRF-CEM", "value": "> 1.83"}, {"measurement": "IC50", "setting": "MDA-MB-231-BCRP cells; Homo sapiens, MDA-MB-231/BCRP, 72 h", "value": "> 50", "unit": "µM"}, {"measurement": "Degree of resistance", "setting": "MDA-MB-231-BCRP cells; IC50 MDA-MB-231-BCRP versus MDA-MB-231-pcDNA", "value": "> 1.18"}, {"measurement": "IC50", "setting": "U87MG.ΔEGFR cells", "value": "> 50", "unit": "µM"}, {"measurement": "IC50", "setting": "[4]", "value": "> 50", "unit": "µM"}, {"measurement": "Cytotoxic activity in the panel", "setting": "[5]", "value": "selectively active"}, {"measurement": "IC50", "setting": "CCRF-CEM cells", "value": 25, "unit": "µM"}, {"measurement": "IC50", "setting": "CEM/ADR5000 cells", "value": 101, "unit": "µM"}, {"measurement": "IC50", "setting": "normal AML12 hepatocytes", "value": "> 50", "unit": "µM"}]}]}
